According to article PMC11487561 (ACS Chemical Neuroscience, 2024):

What was measured:
CYP 2D6 = biological target: T1, CYP 2D6 (Homo sapiens, UniProt P10635); experiment: P450 inhibition in pooled human liver microsomes; format: in vitro ADME; details: pooled HLM, NADPH, CYP-specific probe substrates
T1 construct: from tissue; host or cells: pooled human liver microsomes (according to the earlier reading)

Histamine H2 = Histamine H2 (Homo sapiens, UniProt P25021); experiment: Lead Profiling Screen – Eurofins Panlabs; format: binding; details: read-out: % inh at 10 μM
Chain of Histamine H2 (P25021 whole entry): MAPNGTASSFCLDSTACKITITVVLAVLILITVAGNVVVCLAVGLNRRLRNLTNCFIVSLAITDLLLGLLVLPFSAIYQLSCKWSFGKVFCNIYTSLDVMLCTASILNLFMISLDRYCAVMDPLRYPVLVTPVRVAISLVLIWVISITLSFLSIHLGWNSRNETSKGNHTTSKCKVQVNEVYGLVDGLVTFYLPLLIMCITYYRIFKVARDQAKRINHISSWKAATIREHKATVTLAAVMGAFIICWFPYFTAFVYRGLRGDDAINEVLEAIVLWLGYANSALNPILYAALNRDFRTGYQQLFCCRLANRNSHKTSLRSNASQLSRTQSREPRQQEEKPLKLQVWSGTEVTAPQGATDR

[1] = biological target: Leukotriene, Cysteinyl CysLT1 (Homo sapiens, UniProt Q9Y271); experiment: Lead Profiling Screen – Eurofins Panlabs; format: binding; details: read-out: % inh at 10 μM
Chain of Leukotriene, Cysteinyl CysLT1 (Q9Y271 whole entry): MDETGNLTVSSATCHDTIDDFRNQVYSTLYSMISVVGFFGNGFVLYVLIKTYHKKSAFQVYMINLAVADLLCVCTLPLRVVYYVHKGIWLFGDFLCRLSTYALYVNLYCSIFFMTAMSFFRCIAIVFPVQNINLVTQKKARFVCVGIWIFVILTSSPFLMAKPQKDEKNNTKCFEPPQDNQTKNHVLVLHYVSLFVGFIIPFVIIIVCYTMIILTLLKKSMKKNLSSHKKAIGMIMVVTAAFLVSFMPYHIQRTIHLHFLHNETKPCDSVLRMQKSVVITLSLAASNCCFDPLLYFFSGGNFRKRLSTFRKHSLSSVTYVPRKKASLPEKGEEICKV

In vivo rat iv/po PK = details: male, Sprague-Dawley, plasma, rat (SD); for bioavailability: rat, po
Description: Intravenous pharmacokinetics and plasma-brain level determination (IV PK PBL) VU6016235 […]
Dawley rats (n = 1; 342 gram body weights) via injection into a surgically-implanted jugular vein catheter. […] Blood samples were collected serially from a surgically implanted carotid artery catheter in each animal over multiple post-administration time points (0.033, 0.117, 0.25, 0.5, 1, 2, 4, 7, and 24 hours) into chilled, K2EDTA anticoagulant-fortified tubes and immediately placed on wet ice. […]
For PO PK studies, VU6016235 was formulated in 10% Tween 80 in water and administered orally as a single dose of 10 mg/kg to male Sprague Dawley rats (10 ml/kg, n=2) that were fasted overnight. […]
anticoagulant-fortified tubes and immediately placed on wet ice. The blood samples were then centrifuged (1700 rcf, 5 minutes, 4 °C) in order to obtain plasma samples, which were stored at -80 °C until analysis […]
Samples preparation for bioanalysis
Plasma samples from the in-life phase of the study were thawed at ambient temperature (benchtop), and then aliquots (20 µL per sample) were transferred to a 96-shallow-well (V-bottom) plate. Matrix-matched quality control (QC) samples and a standard curve of […] (1 mg/mL DMSO stock solution) were prepared in blank rat plasma (K2EDTA-treated) or blank brain homogenate via serial dilution and transferred (20 µL each) to the plate along with multiple blank plasma and brain homogenate samples. Acetonitrile (120 µL) containing IS (10 nM carbamazepine) was added to each well of the plate to precipitate protein. The plate was then centrifuged (4000 rcf, 5 minutes, ambient temperature), and resulting supernatants (60 µL each) were transferred to a new 96-shallow-well (V-bottom) plate containing an equal volume (60 µL per well) of water (Milli-Q purified). […]
The plasma standard curve and QCs were used for compounds quantitation in brain.
Binding in plasma from rat and human.
Determination of compounds’ fraction unbound (f u) in plasma from rat and human was conducted in vitro via equilibrium dialysis using HTDialysis membrane plates. Dialysis membranes (four paired strips per HTD assay) were hydrated as described by the manufacturer and inserted into the HTD plate, which was assembled and prepared for sample addition by the dispensing of blank buffer (DPBS, 100 µL/well) into the ‘top half’ of each membrane-split well. Each compound was diluted into plasma from each species (5 µM final concentration), which was aliquoted in triplicate to the ‘bottom half’ of the prepared HTD plate wells. The HTD plate was sealed and incubated for 6 hours at 37 °C. Following incubation, each well (both top and bottom halves) were transferred (20 µL) to the corresponding wells of a 96-shallow-well (V-bottom) plate. The daughter plates were then matrix-matched (buffer side wells received equal volume of plasma, and plasma side wells received equal volume of buffer), and extraction solution (120 µL; acetonitrile containing 50 nM carbamazepine as IS) was added to all wells of both daughter plates to precipitate protein and extract test article. The plates were then sealed and centrifuged (3500 rcf) for 10 minutes at ambient temperature. Supernatant (60 µL) from each well of the daughter plates was then transferred to the corresponding wells of new daughter plates (96-shallow-well, V bottom) containing water (Milli-Q, 60 µL/well), and the plates were sealed in preparation for LC-MS/MS analysis (see below). fu was calculated as (analyte to IS MS peak area ratio from Trans-buffer side) / (analyte to IS MS peak area ratio from Cis-plasma side). Mean values for each species were calculated from 3 replicates.

Neuropeptide Y Y2 = Neuropeptide Y Y2 (Homo sapiens, UniProt P49146); experiment: Lead Profiling Screen – Eurofins Panlabs; format: binding; details: read-out: % inh at 10 μM
Chain of Neuropeptide Y Y2 (P49146 whole entry): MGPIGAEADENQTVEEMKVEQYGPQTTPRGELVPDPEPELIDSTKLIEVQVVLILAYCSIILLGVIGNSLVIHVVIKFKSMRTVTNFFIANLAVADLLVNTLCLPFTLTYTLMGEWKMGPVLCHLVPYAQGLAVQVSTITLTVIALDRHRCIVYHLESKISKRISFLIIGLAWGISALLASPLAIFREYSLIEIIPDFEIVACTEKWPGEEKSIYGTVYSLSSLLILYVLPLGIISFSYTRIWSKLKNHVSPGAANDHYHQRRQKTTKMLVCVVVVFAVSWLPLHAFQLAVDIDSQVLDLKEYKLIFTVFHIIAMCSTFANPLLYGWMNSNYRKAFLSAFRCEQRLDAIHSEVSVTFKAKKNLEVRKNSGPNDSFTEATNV

[2] = biological target: T2, Epidermal Growth Factor (EGF) (Homo sapiens, UniProt P00533); experiment: Lead Profiling Screen – Eurofins Panlabs; format: binding; details: read-out: % inh at 10 μM
T2 construct: Eurofins Panlabs (contract screen)
T2 sequence (P00533 25-1210): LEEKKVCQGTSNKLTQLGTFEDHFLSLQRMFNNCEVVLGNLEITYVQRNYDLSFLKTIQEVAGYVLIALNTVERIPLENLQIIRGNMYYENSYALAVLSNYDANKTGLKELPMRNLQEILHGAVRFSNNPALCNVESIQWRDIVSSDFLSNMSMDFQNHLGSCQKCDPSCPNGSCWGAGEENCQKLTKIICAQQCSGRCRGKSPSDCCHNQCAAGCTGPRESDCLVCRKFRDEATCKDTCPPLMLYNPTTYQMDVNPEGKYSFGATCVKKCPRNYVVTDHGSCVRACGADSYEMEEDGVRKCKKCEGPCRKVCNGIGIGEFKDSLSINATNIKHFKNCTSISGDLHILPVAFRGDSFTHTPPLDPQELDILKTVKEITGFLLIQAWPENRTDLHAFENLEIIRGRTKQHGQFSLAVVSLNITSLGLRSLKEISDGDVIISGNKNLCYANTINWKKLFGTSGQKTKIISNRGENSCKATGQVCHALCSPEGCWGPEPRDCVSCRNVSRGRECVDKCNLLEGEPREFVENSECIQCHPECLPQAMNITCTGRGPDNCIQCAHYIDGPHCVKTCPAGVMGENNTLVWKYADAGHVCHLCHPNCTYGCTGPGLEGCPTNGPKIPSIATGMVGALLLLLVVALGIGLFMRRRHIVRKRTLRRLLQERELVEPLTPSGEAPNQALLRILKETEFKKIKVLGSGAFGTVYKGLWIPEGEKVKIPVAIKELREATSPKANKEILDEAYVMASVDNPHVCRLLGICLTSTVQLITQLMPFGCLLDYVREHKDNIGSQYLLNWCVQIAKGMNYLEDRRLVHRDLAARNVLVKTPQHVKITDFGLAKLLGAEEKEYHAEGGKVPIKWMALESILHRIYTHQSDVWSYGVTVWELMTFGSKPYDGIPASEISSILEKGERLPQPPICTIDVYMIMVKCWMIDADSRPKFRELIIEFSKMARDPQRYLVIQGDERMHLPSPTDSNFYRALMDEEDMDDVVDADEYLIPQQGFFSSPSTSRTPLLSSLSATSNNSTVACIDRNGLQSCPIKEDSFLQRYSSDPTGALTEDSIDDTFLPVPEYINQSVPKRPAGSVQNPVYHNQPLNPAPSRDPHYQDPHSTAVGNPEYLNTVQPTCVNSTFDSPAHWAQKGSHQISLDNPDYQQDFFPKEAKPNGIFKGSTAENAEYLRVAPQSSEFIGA

Glutamate, NMDA, Glycine = Glutamate, NMDA, Glycine (Rattus norvegicus, UniProt P35439); experiment: Lead Profiling Screen – Eurofins Panlabs; format: binding; details: read-out: % inh at 10 μM
Chain of Glutamate, NMDA, Glycine (P35439 394-800 limits assumed): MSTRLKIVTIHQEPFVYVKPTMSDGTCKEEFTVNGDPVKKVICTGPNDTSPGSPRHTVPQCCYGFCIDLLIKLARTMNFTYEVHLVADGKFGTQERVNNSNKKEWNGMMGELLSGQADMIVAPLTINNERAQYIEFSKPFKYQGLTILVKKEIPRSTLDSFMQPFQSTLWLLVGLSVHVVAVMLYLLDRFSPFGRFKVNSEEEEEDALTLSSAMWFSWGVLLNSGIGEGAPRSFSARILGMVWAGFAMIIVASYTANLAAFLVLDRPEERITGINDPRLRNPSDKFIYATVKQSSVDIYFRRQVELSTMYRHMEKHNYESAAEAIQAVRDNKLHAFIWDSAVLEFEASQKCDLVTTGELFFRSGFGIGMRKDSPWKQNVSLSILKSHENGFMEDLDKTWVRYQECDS

hERG potassium channel = hERG potassium channel (Homo sapiens, UniProt Q12809); experiment: Lead Profiling Screen – Eurofins Panlabs; format: binding; details: read-out: % inh at 10 μM
Chain of hERG potassium channel (Q12809 whole entry): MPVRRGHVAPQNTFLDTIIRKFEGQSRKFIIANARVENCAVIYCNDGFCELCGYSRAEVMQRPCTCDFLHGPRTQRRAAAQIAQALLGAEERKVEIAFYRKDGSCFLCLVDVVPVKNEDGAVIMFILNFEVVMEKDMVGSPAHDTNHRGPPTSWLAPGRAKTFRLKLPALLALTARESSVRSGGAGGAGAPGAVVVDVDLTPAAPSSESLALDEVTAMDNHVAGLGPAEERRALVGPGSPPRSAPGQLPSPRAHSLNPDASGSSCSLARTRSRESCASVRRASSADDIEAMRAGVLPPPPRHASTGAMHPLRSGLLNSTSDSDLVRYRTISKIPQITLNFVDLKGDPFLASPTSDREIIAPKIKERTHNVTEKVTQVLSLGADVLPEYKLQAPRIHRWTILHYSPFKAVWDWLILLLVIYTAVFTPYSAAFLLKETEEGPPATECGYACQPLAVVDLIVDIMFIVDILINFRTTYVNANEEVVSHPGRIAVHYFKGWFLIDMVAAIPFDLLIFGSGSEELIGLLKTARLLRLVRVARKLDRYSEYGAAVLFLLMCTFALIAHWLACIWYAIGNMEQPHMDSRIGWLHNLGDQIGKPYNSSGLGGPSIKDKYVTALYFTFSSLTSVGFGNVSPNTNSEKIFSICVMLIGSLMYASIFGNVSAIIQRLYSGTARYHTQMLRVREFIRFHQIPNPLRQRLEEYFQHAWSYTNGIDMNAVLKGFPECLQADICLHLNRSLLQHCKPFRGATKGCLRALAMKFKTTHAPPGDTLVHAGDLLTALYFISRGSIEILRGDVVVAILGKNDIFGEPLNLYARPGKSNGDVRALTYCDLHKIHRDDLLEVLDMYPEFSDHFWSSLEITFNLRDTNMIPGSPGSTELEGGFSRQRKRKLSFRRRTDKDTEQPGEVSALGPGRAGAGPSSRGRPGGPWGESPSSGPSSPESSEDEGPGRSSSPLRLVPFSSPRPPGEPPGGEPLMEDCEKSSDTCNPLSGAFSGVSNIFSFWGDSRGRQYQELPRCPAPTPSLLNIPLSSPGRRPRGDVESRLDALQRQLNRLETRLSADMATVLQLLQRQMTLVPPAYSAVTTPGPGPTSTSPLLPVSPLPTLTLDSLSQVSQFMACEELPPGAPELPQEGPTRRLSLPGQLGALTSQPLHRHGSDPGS

T1 sequence (P10635 whole entry): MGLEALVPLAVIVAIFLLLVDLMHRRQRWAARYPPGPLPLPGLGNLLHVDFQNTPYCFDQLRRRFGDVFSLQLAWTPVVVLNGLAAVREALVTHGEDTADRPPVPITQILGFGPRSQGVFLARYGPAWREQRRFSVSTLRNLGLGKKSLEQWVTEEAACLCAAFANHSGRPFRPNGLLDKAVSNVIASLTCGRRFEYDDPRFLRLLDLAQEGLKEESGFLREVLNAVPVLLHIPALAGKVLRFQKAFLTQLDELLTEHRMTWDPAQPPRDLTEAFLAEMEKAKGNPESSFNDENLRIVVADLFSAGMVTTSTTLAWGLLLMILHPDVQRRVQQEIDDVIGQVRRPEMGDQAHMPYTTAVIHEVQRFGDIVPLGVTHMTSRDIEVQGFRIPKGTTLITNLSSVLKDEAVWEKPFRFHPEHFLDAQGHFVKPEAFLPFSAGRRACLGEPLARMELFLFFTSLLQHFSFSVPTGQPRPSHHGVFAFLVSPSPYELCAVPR

Question: Which results are given for `Cc1nc(C)c2c(n1)sc1c(NCc3ccc(C(C)(C)O)cc3)nccc12` [22g]?
Answer: IC50 (CYP 2D6): > 30 µM; inhibition at 10 µM (Histamine H2): -17%; inhibition at 10 µM [1]: 6%; MRT (In vivo rat iv/po PK; iv 1.0 mg/kg): 4.3 h; half-life (In vivo rat iv/po PK; iv 1.0 mg/kg): 3.4 h; clearance (In vivo rat iv/po PK; iv 1.0 mg/kg, read-out: CLp): 4.9 mL/min/kg; Vd (In vivo rat iv/po PK; iv 1.0 mg/kg, read-out: Vss): 1.3 L/kg; AUC(0-inf) (In vivo rat iv/po PK; po 3.0 mg/kg): 8410 ng·h/mL; Cmax (In vivo rat iv/po PK; po 3.0 mg/kg): 657 ng/mL; Tmax (In vivo rat iv/po PK; po 3.0 mg/kg): 3 h; AUC(0-inf) (In vivo rat iv/po PK; po 30.0 mg/kg): 59200 ng·h/mL; Cmax (In vivo rat iv/po PK; po 30.0 mg/kg): 4460 ng/mL; Tmax (In vivo rat iv/po PK; po 30.0 mg/kg): 5 h; bioavailability (In vivo rat iv/po PK; 3 mg/kg, po 3.0 mg/kg): ≥ 100%; bioavailability (In vivo rat iv/po PK; 30 mg/kg, po 30.0 mg/kg): 84%; inhibition at 10 µM (Neuropeptide Y Y2): 12%; inhibition at 10 µM [2]: -3%; inhibition at 10 µM (Glutamate, NMDA, Glycine): -9%; inhibition at 10 µM (hERG potassium channel): 16%
